# What was measured:
# [1] = LNP formulation screening: physical characteristics; assay type: physicochemical; details: LNP with surrogate RNA coding for luciferase
# Procedure: (§1) An exemplary LNP delivery system was developed to effectively and safely deliver therapeutic nucleic acids into the cytosol of various cell types after local administration in vivo. The early formulation work was performed with several promising LNP formulations and surrogate RNA coding for luciferase. The aim of the experiments was to correlate the effect of different ionizable cationic lipids on the efficacy of RNA delivery by LNPs in vivo. Formulations were compared in terms of RNA encapsulation efficiency, apparent pKa, LNP size and polydispersity.
# liver = assay: in vivo screening of LNP with luciferase (Luc) RNA, intravenous administration
# Procedure: as §1
# Based on this the ALC-0315/DSPC/CHOL/ALC-0159 prototype was submitted for in vivo screening. The results presented in FIG. 16 summarize the in vivo testing of two independent pilot batches using luciferase (Luc) RNA.
# The formulation screening procedure described above involves intravenous administration resulting in delivery primarily to the liver. The mechanism of LNP uptake into hepatocytes is driven by binding of endogenous apolipoproteins to the LNP followed by receptor-mediated endocytosis e.g. through low density lipoprotein receptors. […] Luc expression was monitored at 4, 24, 72 and 96 hours post administration (FIG. 17).
smiles,measurement,setting,value
"CCCCCCCCC(CCCCCC)C(=O)OCCCCCCN(CCCCO)CCCCCCOC(=O)C(CCCCCC)CCCCCCCC (centres unmarked) [ALC-0315, ((4-hydroxybutyl)azanediyl)bis(hexane-6,1-diyl)bis(2-hexyldecanoate)]","physical characteristics regarding particle size, homogeneity, and RNA encapsulation efficiency",[1],suitable
same,potency as cationic lipid,liver,highly potent

# From patent US11779659B2, “RNA constructs and uses thereof” (priority 2020, dated 2023)
